System: Hepatotoxicity
Assay: Literature-mined public compounds from Greene et al multi-species hepatotoxicity modelling dataset

Row | Molecule | Hepatotoxicity
1 | COc1ccccc1Oc1c(NS(=O)(=O)c2ccc(C(C)(C)C)cc2)nc(-c2ncccn2)nc1OCCO [BOSENTAN] | HH: Evidence of human hepatotoxicity
2 | Cn1nnnc1SCC1=C(C(=O)[O-])N2C(=O)[C@@H](NC(=O)[C@H](O)c3ccccc3)[C@H]2SC1.[Na+] [CEFAMANDOLE SODIUM] | HH: Evidence of human hepatotoxicity
3 | CCCCC(CC)COC(=O)C=Cc1ccc(OC)cc1 (centres undefined) [OCTINOXATE] | HH: Evidence of human hepatotoxicity
4 | C#CCN(C)Cc1ccccc1 [PARGYLINE] | NE: No evidence of hepatotoxicity in any species
5 | Cc1ccc(C(=O)c2cc(O)c(O)c([N+](=O)[O-])c2)cc1 [TOLCAPONE] | HH: Evidence of human hepatotoxicity
6 | Cc1cc(C2CCCCC2)n(O)c(=O)c1 [CICLOPIROX] | NE: No evidence of hepatotoxicity in any species
7 | NNCCc1ccccc1 [PHENELZINE] | NE: No evidence of hepatotoxicity in any species
8 | Clc1ccc(Cl)cc1 [1,4-DICHLOROBENZENE] | AH: Evidence for animal hepatotoxicity but not tested in humans
9 | CCN(CC)CCCC(C)Nc1ccnc2cc(Cl)ccc12.O=P(O)(O)O.O=P(O)(O)O (centres undefined) [CHLOROQUINE PHOSPHATE] | WE: Weak evidence (<10 case reports) of human hepatotoxicity
10 | OC(Cn1cncn1)(Cn1cncn1)c1ccc(F)cc1F [FLUCONAZOLE] | HH: Evidence of human hepatotoxicity
11 | O=C(O)COc1ccc(C(=O)c2cccs2)c(Cl)c1Cl | HH: Evidence of human hepatotoxicity
12 | CISPLATIN | HH: Evidence of human hepatotoxicity
13 | ClC=C(Cl)Cl [TRICHLOROETHYLENE] | AH: Evidence for animal hepatotoxicity but not tested in humans
14 | CC(C)NCC(O)c1ccc(O)c(O)c1.Cl (centres undefined) [ISOPROTERENOL HYDROCHLORIDE] | NE: No evidence of hepatotoxicity in any species
15 | COc1ccc2cc([C@H](C)C(=O)O)ccc2c1 [NAPROXEN] | WE: Weak evidence (<10 case reports) of human hepatotoxicity
16 | O=C(O)/C=C\C(=O)O [MALEIC ACID] | AH: Evidence for animal hepatotoxicity but not tested in humans
17 | CC(=O)O[C@]1(C(C)=O)CC[C@H]2[C@@H]3C=C(Cl)C4=CC(=O)[C@@H]5C[C@@H]5[C@]4(C)[C@H]3CC[C@@]21C [CYPROTERONE ACETATE] | AH: Evidence for animal hepatotoxicity but not tested in humans
18 | CN(C)C(=O)Oc1cc(OC(=O)N(C)C)cc(C(O)CNC(C)(C)C)c1 (centres undefined) [BAMBUTEROL] | NE: No evidence of hepatotoxicity in any species
19 | GENTAMICIN | NE: No evidence of hepatotoxicity in any species
20 | CCOC(=O)Nc1ccc2c(c1)N(C(=O)CCN1CCOCC1)c1ccccc1S2.Cl [MORICIZINE HYDROCHLORIDE] | HH: Evidence of human hepatotoxicity
21 | CO/N=C(/C(=O)N[C@@H]1C(=O)N2C(C(=O)[O-])=C(CSc3nc(=O)c(O)nn3C)CS[C@H]12)c1csc(N)n1.[Na+] | HH: Evidence of human hepatotoxicity
22 | O=C1OCCN1/N=C/c1ccc([N+](=O)[O-])o1 [FURAZOLIDONE] | HH: Evidence of human hepatotoxicity

Row | Molecule | Hepatotoxicity
23 | CC[C@@H](CO)NC(=O)[C@@H]1C=C2c3cccc4c3c(cn4C)C[C@H]2N(C)C1.O=C(O)/C=C\C(=O)O [METHYSERGIDE MALEATE] | NE: No evidence of hepatotoxicity in any species
24 | CCOC(=O)C(C)(C)Oc1ccc(Cl)cc1 [CLOFIBRATE] | HH: Evidence of human hepatotoxicity
25 | Nc1cc(Cl)c(O)c(Cl)c1.Nc1ccc(O)cc1 | AH: Evidence for animal hepatotoxicity but not tested in humans
26 | CCCCCCCCCCCCCCCC(=O)OC[C@@H](NC(=O)C(Cl)Cl)[C@H](O)c1ccc([N+](=O)[O-])cc1 [CHLORAMPHENICOL PALMITATE] | HH: Evidence of human hepatotoxicity
27 | Nc1nc(=O)c2c([nH]1)NCC(CNc1ccc(C(=O)N[C@@H](CCC(=O)[O-])C(=O)[O-])cc1)N2C=O.[Ca+2] (some centres undefined) [LEUCOVORIN CALCIUM] | NE: No evidence of hepatotoxicity in any species
28 | CC(=O)S[C@@H]1CC2=CC(=O)CC[C@]2(C)[C@H]2CC[C@@]3(C)[C@@H](CC[C@@]34CCC(=O)O4)[C@H]12 [SPIRONOLACTONE] | HH: Evidence of human hepatotoxicity
29 | AURANOFIN | HH: Evidence of human hepatotoxicity
30 | CC(=O)OCC1=C(C(=O)[O-])N2C(=O)[C@@H](NC(=O)CSc3ccncc3)[C@H]2SC1.[Na+] [CEPHAPIRIN SODIUM] | NE: No evidence of hepatotoxicity in any species
31 | CC(C)(CO)[C@@H](O)C(=O)NCCC(=O)[O-].CC(C)(CO)[C@@H](O)C(=O)NCCC(=O)[O-].[Ca+2] [CALCIUM PANTOTHENATE] | NE: No evidence of hepatotoxicity in any species
32 | NC[C@@H]1O[C@H](O[C@H]2[C@@H](O)[C@H](O[C@@H]3[C@@H](O)[C@H](N)C[C@H](N)[C@H]3O[C@H]3O[C@H](CO)[C@@H](O)[C@H](O)[C@H]3N)O[C@@H]2CO)[C@H](N)[C@@H](O)[C@@H]1O.O=S(=O)(O)O [PAROMOMYCIN SULFATE] | NE: No evidence of hepatotoxicity in any species
33 | COc1cccc2c1C(=O)c1c(O)c3c(c(O)c1C2=O)C[C@@](O)(C(=O)CO)C[C@@H]3O[C@H]1C[C@H](N)[C@H](O)[C@H](C)O1.Cl [DOXORUBICIN HYDROCHLORIDE] | HH: Evidence of human hepatotoxicity
34 | O=C1CN(/N=C/c2ccc([N+](=O)[O-])o2)C(=O)N1 [NITROFURANTOIN] | HH: Evidence of human hepatotoxicity
35 | NC(=O)c1ncn([C@@H]2O[C@H](CO)[C@@H](O)[C@H]2O)n1 [RIBAVIRIN] | WE: Weak evidence (<10 case reports) of human hepatotoxicity
36 | C#CC1(O)CC[C@H]2[C@@H]3CCC4=CC(=O)CC[C@@H]4[C@H]3CC[C@@]21CC (some centres undefined) [NORGESTREL] | HH: Evidence of human hepatotoxicity
37 | CN[C@@H](C)[C@@H](O)c1ccccc1.Cl [PSEUDOEPHEDRINE HYDROCHLORIDE] | NE: No evidence of hepatotoxicity in any species
38 | NC(N)=Nc1nc(CSCCC(N)=NS(N)(=O)=O)cs1 [FAMOTIDINE] | WE: Weak evidence (<10 case reports) of human hepatotoxicity
39 | CC(C)NCC(O)COc1cccc2[nH]ccc12 (centres undefined) [PINDOLOL] | NE: No evidence of hepatotoxicity in any species
40 | Cc1onc(-c2ccccc2Cl)c1C(=O)N[C@@H]1C(=O)N2[C@@H]1SC(C)(C)[C@@H]2C(=O)[O-].O.[Na+] [CLOXACILLIN SODIUM] | HH: Evidence of human hepatotoxicity
41 | CC(C)c1nc(CN(C)C(=O)N[C@H](C(=O)N[C@@H](Cc2ccccc2)C[C@H](O)[C@H](Cc2ccccc2)NC(=O)OCc2cncs2)C(C)C)cs1 [RITONAVIR] | HH: Evidence of human hepatotoxicity
42 | CC(C)COCC(CN(Cc1ccccc1)c1ccccc1)N1CCCC1.Cl.O (centres undefined) [BEPRIDIL HYDROCHLORIDE] | HH: Evidence of human hepatotoxicity
43 | CNCCC=C1c2ccccc2CCc2ccccc21.Cl [NORTRIPTYLINE HYDROCHLORIDE] | HH: Evidence of human hepatotoxicity
44 | COc1cccc2c1C(=O)c1c(O)c3c(c(O)c1C2=O)C[C@@](O)(C(=O)CO)C[C@@H]3O[C@H]1C[C@H](N)[C@@H](O)[C@H](C)O1 [EPIRUBICIN] | NE: No evidence of hepatotoxicity in any species
